From US10898561B2, “Peptides and combination of peptides for use in immunotherapy against pancreatic cancer and other cancers” (IMMATICS BIOTECHNOLOGIES GMBH, priority 2015, dated 2021)

Legend:
HLA-A*02:01 = HLA-A*02:01 (Homo sapiens, UniProt P04439, D140Y/D185E/D98H/E176V/E277Q/G131W/G231S/I119V/I121R/I166T/I218V/L300P/L318F/N151K/N90K/P208A/P217A/Q86G/Q94H/R138H/R169H/T345S); test: MHC binding assay: UV-ligand exchange with beta2m ELISA; details: MHC class I binding score, yield of UV-ligand exchange
Text: Candidate peptides for T cell based therapies according to the present invention were further tested for their MHC binding capacity (affinity). The individual peptide-MHC complexes were produced by UV-ligand exchange, where a UV-sensitive peptide is cleaved upon UV-irradiation, and exchanged with the peptide of interest as analyzed. Only peptide candidates that can effectively bind and stabilize the peptide-receptive MHC molecules prevent dissociation of the MHC complexes. To determine the yield of the exchange reaction, an ELISA was performed based on the detection of the light chain (β2m) of stabilized MHC complexes. The assay was performed as generally described in Rodenko et al. (Rodenko et al., 2006).
96 well MAXISorp plates (NUNC) were coated over night with 2 ug/ml streptavidin in PBS at room temperature, washed 4× and blocked for 1 h at 37° C. in 2% BSA containing blocking buffer. Refolded HLA-A*02:01/MLA-001 monomers served as standards, covering the range of 15-500 ng/ml. Peptide-MHC monomers of the UV-exchange reaction were diluted 100 fold in blocking buffer. Samples were incubated for 1 h at 37° C., washed four times, incubated with 2 ug/ml HRP conjugated anti-β2m for 1 h at 37° C., washed again and detected with TMB solution that is stopped with […]. Absorption was measured at 450 nm. Candidate peptides that show a high exchange yield (preferably higher than 50%, most preferred higher than 75%) are generally preferred for a generation and production of antibodies or fragments thereof, and/or T cell receptors or fragments thereof, as they show sufficient avidity to the MHC molecules and prevent dissociation of the MHC complexes.

CD8+ T cells = test: In vitro T-cell priming assay with aAPCs loaded with peptide/MHC complexes and anti-CD28 antibody, multimer readout; format: cell-based, human; details: in vitro immunogenicity, healthy HLA-A*02 donors; for donors: positive donors; for wells: positive wells
Text: In order to obtain information regarding the immunogenicity of the TUMAPs of the present invention, the inventors performed investigations using an in vitro T-cell priming assay based on repeated stimulations of CD8+ T cells with artificial antigen presenting cells (aAPCs) loaded with peptide/MHC complexes and anti-CD28 antibody.
In order to perform in vitro stimulations by artificial antigen presenting cells loaded with peptide-MHC complex (pMHC) and anti-CD28 antibody, the inventors first isolated CD8+ T cells from fresh HLA-A*02 leukapheresis products via positive selection using CD8 microbeads (Miltenyi Biotec, Bergisch-Gladbach, Germany) of healthy donors obtained from the University clinics Mannheim, Germany, after informed consent.
PBMCs and isolated CD8+ lymphocytes were incubated in T-cell medium (TCM) until use consisting of RPMI-Glutamax (Invitrogen, Karlsruhe, Germany) supplemented with 10% heat inactivated human AB serum (PAN-Biotech, Aidenbach, Germany), 100 U/ml Penicillin/100 μg/ml Streptomycin (Cambrex, Cologne, Germany), 1 mM sodium pyruvate (CC Pro, Oberdorla, Germany), 20 μg/ml Gentamycin (Cambrex). 2.5 ng/ml IL-7 (PromoCell, Heidelberg, Germany) and 10 U/ml IL-2 (Novartis Pharma, Nürnberg, Germany) were also added to the TCM at this step.
Generation of pMHC/anti-CD28 coated beads, T-cell stimulations and readout was performed in a highly defined in vitro system using four different pMHC molecules per stimulation condition and 8 different pMHC molecules per readout condition.
The purified co-stimulatory mouse IgG2a anti human CD28 Ab 9.3 (Jung et al., 1987) was chemically biotinylated using Sulfo-N-hydroxysuccinimidobiotin as recommended by the manufacturer (Perbio, Bonn, Germany). Beads used were 5.6 μm diameter streptavidin coated polystyrene particles (Bangs Laboratories, Ill., USA).
800.000 beads/200 μl were coated in 96-well plates in the presence of 4×12.5 ng different biotin-pMHC, washed and 600 ng biotin anti-CD28 were added subsequently in a volume of 200 μl. Stimulations were initiated in 96-well plates by co-incubating 1×10^6 CD8+ T cells with 2×10^6 washed coated beads in 200 μl TCM supplemented with 5 ng/ml IL-12 (PromoCell) for 3 days at 37° C. Half of the medium was then exchanged by fresh TCM supplemented with 80 U/ml IL-2 and incubating was continued for 4 days at 37° C. This stimulation cycle was performed for a total of three times. For the pMHC multimer readout using 8 different pMHC molecules per condition, a two-dimensional combinatorial coding approach was used as previously described (Andersen et al., 2012) with minor modifications encompassing coupling to 5 different fluorochromes. Finally, multimeric analyses were performed by staining the cells with Live/dead near IR dye (Invitrogen, Karlsruhe, Germany), CD8-FITC antibody clone SK1 (BD, Heidelberg, Germany) and fluorescent pMHC multimers. For analysis, a BD LSRII SORP cytometer equipped with appropriate lasers and filters was used. Peptide specific cells were calculated as percentage of total CD8+ cells. Evaluation of multimeric analysis was done using the FlowJo software (Tree Star, Oregon, USA). In vitro priming of specific multimer+CD8+ lymphocytes was detected by comparing to negative control stimulations.

Row | Peptide exchange (HLA-A*02:01) | Substance | Wells positive [%] (CD8+ T cells) | donors (CD8+ T cells) | wells (CD8+ T cells)
1 | +++ (50%-75% = +++) | 3 (ALLTFMEQV; listed as Homo sapiens) [compound 3] | ++ (20%-49% = ++) |  | 
2 | ++ (20%-49% = ++) | 20 (RLAGDGVGAV; listed as Homo sapiens) [compound 20] | ++++ (>=70% = ++++) |  | 
3 | ++ (20%-49% = ++) | 21 (HLMDQPLSV; listed as Homo sapiens) [compound 21] | + (<20% = +) |  | 
4 | ++ (20%-49% = ++) | 23 (SLSAFTLFL; listed as Homo sapiens) [compound 23] | ++ (20%-49% = ++) |  | 
5 | ++++ (>=75% = ++++) | 34 (MLMPVHFLL; listed as Homo sapiens) [compound 34] | + (<20% = +) |  | 
6 | ++ (20%-49% = ++) | 37 (GLLKKINSV; listed as Homo sapiens) [compound 37] | + (<20% = +) |  | 
7 | +++ (50%-75% = +++) | 50 (ALAAILTRL; listed as Homo sapiens) [compound 50] | +++ (50%-69% = +++) |  | 
8 |  | 69 (VMAPFTMTI; listed as Homo sapiens) [compound 69] |  | ++++ (>=70% = ++++) | ++ (20%-49% = ++)
9 |  | 87 (LLLGSPAAA; listed as Homo sapiens) [compound 87] |  | +++ (50%-69% = +++) | + (<20% = +)
